Results reported in ChEMBL document CHEMBL4831481, “Semisynthesis, Antiplasmodial Activity, and Mechanism of Action Studies of Isocoumarin Derivatives” (J Nat Prod, 2021).
pIC50: −log10 of the molar value. Active and inactive are the calls of the source. The rule behind the calls is not given here.

Assays:
[1] = target: T1, DNA gyrase (Escherichia coli) (UniProt P0AES6+P0AES4); assay: Inhibition of Escherichia coli DNA gyrase at 100 uM by fluorescence based assay relative to control; format: protein-complex assay
Plasmodium falciparum [2] = assay: Antiplasmodial activity against Plasmodium falciparum HB3 infected in human erythrocytes assessed as reduction in parasite growth incubated for 48 hrs by PicoGreen DNA fluorescent dye; format: functional, organism-based; conditions: HB3, 48 h
[3] = Selectivity index, ratio of CC50 for African green monkey Vero cells to IC50 for Plasmodium falciparum HB3 infected in human erythrocytes assessed as reduction in parasite growth; format: toxicity, cell-based; conditions: read-out: Ratio CC50/IC50
Vero = assay: Cytotoxicity against African green monkey Vero cells assessed as reduction in cell viability by MTT assay; format: functional; conditions: Chlorocebus sabaeus
Trypanosoma cruzi [4] = assay: Antitrypanosomal activity against Trypanosoma cruzi amastigotes infected in African green monkey Vero cells incubated for 5 days at 10 ug/mL by chlorophenol red-beta-D-galactoside based colorimetric analysis relative to control; format: functional; conditions: 120 h, time 5 day, read-out: GI
Erythrocyte = assay: Hemolytic activity against red blood cells assessed as hemolysis at 10 uM incubated for 24 hrs by spectrophotometric analysis relative to control; format: ADME, cell-based
Leishmania donovani = assay: Antileishmanial activity against Leishmania donovani axenic amastigotes at 10 ug/mL assessed as growth inhibition relative to control; format: functional; conditions: read-out: GI
[5] = tested on: Plasmodium falciparum HB3; assay: Disruption of cell membrane integrity in schizont stage Plasmodium falciparum HB3 infected red blood cells incubated for 3 hrs at 10 uM and measured by propidium iodide incorporation assay relative to control; format: cell membranes
Hemozoin = assay: Inhibition of beta-hematin formation in Plasmodium falciparum assessed as decrease in beta-hematin; design: scale not given: the % may be the effect or the level left
[6] = target: T1, DNA gyrase (Escherichia coli); assay: Inhibition of Escherichia coli DNA gyrase at 10 uM by fluorescence based assay relative to control; format: protein-complex assay
Plasmodium falciparum [7] = assay: Induction of reactive oxygen species generation in schizont stage Plasmodium falciparum HB3 incubated for 3 hrs at 10 uM by CM-H2DCFDA dye based fluorescence assay relative to control; format: functional, organism-based
Plasmodium falciparum [8] = assay: […] activity in schizont stage Plasmodium falciparum HB3 assessed as reduction in mitochondrial membrane potential at 10 uM incubated for 20 mins and measured after 3 hrs by DiOC6-staining based fluorometry analysis relative to control; format: functional, organism-based
MCF7 = assay: Growth inhibition of human MCF7 cells at 10 ug/mL relative to control; format: functional; conditions: read-out: GI
Plasmodium falciparum [9] = assay: Induction of apoptosis in schizont stage Plasmodium falciparum HB3 infected red blood cells assessed as caspase activity measured by FLICA reagent based fluorescence assay; format: functional, organism-based
[10] = Disruption of cell membrane integrity in red blood cells incubated for 3 hrs at 10 uM and measured by propidium iodide incorporation assay relative to control; format: ADME, cell membranes
Trypanosoma cruzi [11] = assay: Antitrypanosomal activity against Trypanosoma cruzi amastigotes infected in African green monkey Vero cells incubated for 5 days by chlorophenol red-beta-D-galactoside based colorimetric analysis; format: functional, organism-based; conditions: 120 h
[12] = target: T1, DNA gyrase (Escherichia coli); assay: Inhibition of Escherichia coli DNA gyrase at 50 uM by fluorescence based assay relative to control; format: protein-complex assay

Row | pIC50 (Trypanosoma cruzi [11]) | SMILES | pIC50 (Plasmodium falciparum [2]) | selectivity ratio [3] | CC50 (Vero) [µM] | further results
1 |  | CC/C(=C(\c1ccccc1)c1ccc(OCCN(C)C)cc1)c1ccccc1 |  |  |  | inhibition [1]: Active
2 |  | COC(=O)CC[C@H]1C[C@H]2OC(=O)c3c(cc(OC)c(OC)c3O)[C@H]2O1 | 5.59 | 41 | 106 | 
3 |  | CCC[C@H](O)C[C@H]1OC(=O)c2c(cc(OC)c(OC)c2O)[C@H]1OC | 6.42 | 675 | 258 | inhibition of growth at 10 µg/mL (Trypanosoma cruzi [4]): 0%; Activity (Erythrocyte): Non-Toxic; inhibition of growth at 10 µg/mL (Leishmania donovani): 0%; Activity [5]: inactive; Activity (Hemozoin): 51.1%; inhibition [6]: 48%; Activity (Plasmodium falciparum [7]): inactive; Activity (Plasmodium falciparum [8]): Active; inhibition of growth at 10 µg/mL (MCF7): 0%; Activity (Plasmodium falciparum [9]): inactive; Activity [10]: Non-Toxic
4 |  | COc1cc2c(c(O)c1OC)C(=O)O[C@@H]1C[C@H](C[C@H](C)O)O[C@H]21 | 4.93 | 22 | 262 | 
5 |  | CCC[C@H]1C[C@H]2OC(=O)c3c(cc(OC)c(OC)c3OC(C)=O)[C@H]2O1 | 6.11 | 161 | 124 | 
6 | 4.91 | CCC[C@H]1C[C@H]2OC(=O)c3c(cc(O)c(O)c3OCc3ccc(C(F)(F)F)cc3)[C@H]2O1 |  |  |  | 
7 |  | CCC[C@H]1C[C@H]2OC(=O)c3c(cc(OC)c(OC)c3O)[C@H]2O1 [MONOCERIN] | 5.95 | 77 | 87.5 | 
8 | 4.87 | CCC[C@H]1C[C@H]2OC(=O)c3c(cc(O)c(O)c3OCc3cccc(C(F)(F)F)c3)[C@H]2O1 |  |  |  | 
9 |  | CCN(CC)CCCC(C)Nc1ccnc2cc(Cl)ccc12 (configuration not stated) |  |  |  | Activity (Hemozoin): 68.2%; inhibition [12]: inactive
10 | 4.92 | CCC[C@H]1C[C@H]2OC(=O)c3c(cc(O)c(O)c3OCc3cc(C(F)(F)F)cc(C(F)(F)F)c3)[C@H]2O1 |  |  |  | 
